Data published in patent US9617282B2, “Macrocyclic compounds as IRAK4 inhibitors for the treatment of inflammatory diseases” (BIOGEN MA INC., priority 2013, dated 2017).

Columns and labels:
A549 cells = experiment: Cell-based assay, IL-6 ELISA quantification in IL-1 beta stimulated A549 cells; conditions: 2 ng/ml human IL-1 beta overnight, class symbols, read-out: Celluar Data EC50
Experimental: The cell-based assays is based on IL-6 ELISA quantification. Briefly, A549 cells are cultured in DMEM with 10% FBS medium. When cells reach 80% confluence they are trypsin treated and seeded in 96-well plate at 2.5×10^4 cells/well. Then, 20 ul of compound serial dilutions (starting at 10 uM, 10 points) are added to the cell plate; incubate for 1 hour at 37 C and stimulated with 2 ng/ml human IL-1 beta 37 C overnight. The next day 100 ul of cell supernatant per well are analyzed on a Human IL-6 Quantikine ELISA kit from R&D Systems.

IRAK4 = IRAK4 (Homo sapiens (Human), UniProt Q9NWZ3); experiment: IRAK-4 biochemical kinase assay, AlphaScreen format; conditions: 1 nM IRAK4, 1.6 μM peptide, 10 μM ATP, 3.5 h at RT; class symbols
IRAK4, sequence (Q9NWZ3 whole entry, species assumed): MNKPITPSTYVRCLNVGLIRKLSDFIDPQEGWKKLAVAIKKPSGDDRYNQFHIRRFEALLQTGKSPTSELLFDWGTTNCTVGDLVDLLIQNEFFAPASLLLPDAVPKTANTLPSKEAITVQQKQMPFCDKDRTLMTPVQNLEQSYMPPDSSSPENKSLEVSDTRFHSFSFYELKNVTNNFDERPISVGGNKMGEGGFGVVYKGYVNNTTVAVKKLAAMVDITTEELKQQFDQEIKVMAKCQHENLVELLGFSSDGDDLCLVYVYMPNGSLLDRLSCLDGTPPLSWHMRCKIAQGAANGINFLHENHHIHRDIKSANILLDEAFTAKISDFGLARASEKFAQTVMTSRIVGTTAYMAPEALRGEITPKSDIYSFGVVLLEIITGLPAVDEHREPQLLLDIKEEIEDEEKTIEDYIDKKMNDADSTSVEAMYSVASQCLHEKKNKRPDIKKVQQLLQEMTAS
Method in brief: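 AlphaScreen read-out: streptavidin beads bind the biotinylated peptide and protein A beads bind the anti-phosphothreonine antibody, so energy transfer reports phosphorylation of the peptide. The kinase is human IRAK-4.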

SMILES | EC50 (A549 cells) | IC50 (IRAK4)
Cn1cc2c(n1)C(=O)NCCOCCc1cc(ccn1)-c1nc(cs1)C(=O)N2 [Example 133] | < 10000 nM | < 1000 nM
O=C1Nc2cccnc2C(=O)NCCOCCOc2cc(ccn2)-c2nc1cs2 [Example 128] | > 10000 nM | < 100 nM
O=C1Nc2cn(C3CCOCC3)nc2C(=O)NCCOCCOc2cc(ccn2)-c2nc1cs2 [Compound 44] | < 10000 nM | < 100 nM
CC(C)(C)OC(=O)N1CCC(CCn2cc3c(n2)C(=O)NCCOCCOc2cc(ccn2)-c2nc(cs2)C(=O)N3)CC1 [Example 154] | > 10000 nM | < 100 nM
CN1CCC(Cn2cc3c(n2)C(=O)NCCOCCOc2cc(ccn2)-c2nc(cs2)C(=O)N3)CC1 [Example 158] | > 10000 nM | < 1000 nM
CNC(=O)Cn1cc2c(n1)C(=O)NCCOCCOc1cc(ccn1)-c1nc(cs1)C(=O)N2 [Example 161] | > 10000 nM | < 100 nM
O=C1Nc2cn(C3CCOCC3)nc2C(=O)NCCCCNc2cc(ccn2)-c2nc1cs2 [Example 132] | < 1000 nM | < 100 nM
Cn1cc2c(n1)C(=O)NCCOCCNc1cc(ccn1)-c1nc(cs1)C(=O)N2 [Compound 45] | < 1000 nM | < 100 nM
O=C1Nc2cn(C3CCOCC3)nc2C(=O)NCCOCCCOc2cc(ccn2)-c2nc1cs2 [Example 123] | < 1000 nM | < 100 nM
O=C1Nc2cn(CCCO)nc2C(=O)NCCOCCOc2cc(ccn2)-c2nc1cs2 [Example 152] | > 10000 nM | < 100 nM
O=C1Nc2cnccc2C(=O)NCCOCCOc2cc(ccn2)-c2nc1cs2 [Example 130] | < 1000 nM | < 100 nM
NC(=O)CCn1cc2c(n1)C(=O)NCCOCCOc1cc(ccn1)-c1nc(cs1)C(=O)N2 [Example 151] | > 10000 nM | < 1000 nM
O=C1CCNC(=O)c2csc(n2)-c2ccnc(c2)OCCOCCN1 [Example 126] | > 10000 nM | < 1000 nM
NC(=O)Cn1cc2c(n1)C(=O)NCCOCCOc1cc(ccn1)-c1nc(cs1)C(=O)N2 [Example 147] | > 10000 nM | < 1000 nM
O=C1Nc2cn(C3CCOCC3)nc2C(=O)NC2CC(=O)N(CCCc3cc(ccn3)-c3nc1cs3)C2=O (centres unmarked) [Example 200] | < 10000 nM | < 100 nM
Cn1cc2c(n1)C(=O)NCCCCOc1cc(ccn1)-c1nc(co1)C(=O)N2 [Compound 34] | < 1000 nM | < 100 nM
Cn1cc2c(n1)C(=O)NCCCCCCNc1cc(ccn1)-c1nc(co1)C(=O)N2 [Compound 32] | < 1000 nM | < 100 nM
CN1CCCc2cc(ccn2)-c2nc(cs2)C(=O)Nc2cn(C3CCOCC3)nc2C(=O)NCC1 [Example 169] | > 10000 nM | < 100 nM
O=C1Nc2ccccc2OCCCCCNc2cc(ccn2)-c2nc1co2 [Compound 2] | < 1000 nM | < 100 nM
CCn1cc2c(n1)C(=O)NCCOCCOc1cc(ccn1)-c1nc(cs1)C(=O)N2 [Example 139] | > 10000 nM | < 100 nM
Cn1cc2c(n1)C(=O)NCCCCOc1cc(ccn1)-c1nc(cs1)C(=O)N2 [Example 91] | < 1000 nM | < 100 nM
CCOC(=O)CCn1cc2c(n1)C(=O)NCCOCCOc1cc(ccn1)-c1nc(cs1)C(=O)N2 [Example 150] | > 10000 nM | < 100 nM
O=C1Nc2cn(C3CCOCC3)nc2C(=O)NCCCCOc2cc(ccn2)-c2nc1cs2 [Example 90] | < 10000 nM | < 100 nM
O=C1Nc2cn(C3CCOCC3)nc2C(=O)NCCOCCCn2cc(cn2)-c2nc1cs2 [Example 136] | < 1000 nM | < 100 nM
CN(C)CCCn1cc2c(n1)C(=O)NCCOCCOc1cc(ccn1)-c1nc(cs1)C(=O)N2 [Example 138] | > 10000 nM | < 100 nM
Cn1cc2c(n1)C(=O)NCCC/C=C/CCCNc1cc(ccn1)-c1nc(co1)C(=O)N2 [Example 140] | < 1000 nM | < 100 nM
CN(C)CCNC(=O)c1ccc2c(c1)NC(=O)c1csc(n1)-c1ccnc(c1)NCCCCCO2 [Compound 16] | > 10000 nM | < 100 nM
CC(C)n1cc2c(n1)C(=O)NCCOCCOc1cc(ccn1)-c1nc(cs1)C(=O)N2 [Example 162] | > 10000 nM | < 100 nM
